Laboratory results as given in PubChem BioAssay (NCI).
Several values for one entry are separate records, joined by “and”; a condition that tells them apart may be missing. Equal entries are not always repeated.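 Grown in 96-well plates, cells were treated for 48 hours with each compound at five concentrations. Insufficient inhibition: endpoint recorded as highest concentration tested. Here, GI50 denotes the concentration required for 50% inhibition of growth. TGI marks complete inhibition of growth.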

Legend:
Test in all cases: growth of human tumour cells (NCI), 48 h
RXF 393 renal = test system: RXF 393 renal
SR leukemia = test system: SR leukemia
786-0 renal = test system: 786-0 renal
T-47D breast = test system: T-47D breast
SNB-75 CNS = test system: SNB-75 CNS
EKVX NSCLC = test system: EKVX NSCLC
SK-MEL-2 melanoma = test system: SK-MEL-2 melanoma
NCI/ADR-RES ovarian = test system: NCI/ADR-RES ovarian
NCI-H226 lung = test system: NCI-H226 lung
UACC-62 melanoma = test system: UACC-62 melanoma
MDA-MB-231 breast = test system: MDA-MB-231 breast

| SMILES | TGI (RXF 393 renal) [µM] | TGI (SR leukemia) [µM] | TGI (786-0 renal) [µM] | TGI (T-47D breast) [µM] | TGI (SNB-75 CNS) | TGI (EKVX NSCLC) | TGI (SK-MEL-2 melanoma) [µM] | TGI (NCI/ADR-RES ovarian) | TGI (NCI-H226 lung) [µM] | TGI (UACC-62 melanoma) | TGI (MDA-MB-231 breast) [µM] | GI50 (RXF 393 renal) [µM] | GI50 (EKVX NSCLC) [µM] | GI50 (SK-MEL-2 melanoma) [µM] | GI50 (NCI/ADR-RES ovarian) [µM] | GI50 (UACC-62 melanoma) [µM] |
| --- | --- | --- | --- | --- | --- | --- | --- | --- | --- | --- | --- | --- | --- | --- | --- | --- |
| OCCc1ccsc1-c1sc(-c2cc(CCO)c(-c3sc(-c4cc(CCO)c(-c5sccc5CCO)s4)cc3CCO)s2)cc1CCO | 1.21 | 2.59 | 2.14 | 3.56 | 2.89 µM | 2.91 µM | 3.35 | 4.14 µM | 3.86 | 3.41 µM | 11.9 | – | – | – | – | – |
| CCCC(=O)Nc1cc(C(=O)N2C[C@H]3C[C@@]34C2=CC(=O)c2[nH]cc(C)c24)n(COC)c1 | – | 0.0236 | 5.82 | 1.49 | 1.45 µM and 0.718 µM | 3.37 µM and 2.29 µM | – | 2.73 µM and 4.64 µM | 5.18 | 0.911 µM and 0.289 µM | 3 | 0.106 | 0.421 | 0.13 | 1.17 | 0.144 |
| Cc1nn2c(=O)c([N+](=O)[O-])c(/C=C/c3ccc(F)cc3)nc2s1 | 10.7 | 16.5 | 20.9 | 19.3 | 31.3 µM | 22.5 µM | 19.3 | 25.1 µM | 19 | 17.5 µM | 26.8 | – | – | – | – | – |
| Cc1sc(/N=C/C2=C(O)CC(C)(C)CC2=O)nc1-c1ccccc1 | > 100 | > 100 | > 100 | > 100 | > 100 µM | > 100 µM | > 100 | > 100 µM | > 100 | > 100 µM | > 100 | – | – | – | – | – |
| O=C1c2cc3c(cc2NC(c2ccccc2F)C1O)OCO3 (centres undefined) | > 64.9 | > 37.9 | 48.1 | > 100 | 56.9 µM | > 70.8 µM | > 100 | > 64.7 µM | > 64.7 | 64 µM | > 76.2 | – | – | – | – | – |
| Cc1ccc(S(=O)(=O)N/N=C2\C=CC3(CC2)C(=O)N(I)c2ccccc23)cc1 (centres undefined) | 98 | > 100 | > 100 | > 100 | > 100 µM | > 100 µM | > 100 | > 100 µM | > 100 | > 100 µM | > 100 | – | – | – | – | – |
| CC(=O)O[C@H]1[C@@H](N2CCOCC2)C[C@H]2[C@@H]3CC=C4C[C@@H](N5CCCC5)CC[C@]4(C)[C@H]3CC[C@@]21C | > 100 | 83.7 | > 100 | > 100 | > 100 µM | > 100 µM | > 100 | > 100 µM | > 100 | > 100 µM | > 100 | – | – | – | – | – |
| COc1ccc(-c2nc3ccccc3c(=O)[nH]2)cc1 | > 100 | > 100 | > 100 | > 100 | 84.9 µM | > 100 µM | > 100 | > 100 µM | > 100 | > 100 µM | > 100 | – | – | – | – | – |
| COC(=O)c1ccccc1C1CN=NC12Cc1ccc(C)cc1C2=O (centres undefined) | > 100 | > 100 | > 100 | > 100 | > 100 µM | > 100 µM | > 100 | > 100 µM | > 100 | > 100 µM | > 100 | – | – | – | – | – |
| Cc1c(C#N)c2nnn(-c3cccc(Cl)c3)c(=O)n2c1-c1ccccc1 | 5.84 | 2.69 | > 100 | 53.9 | 7.76 µM | > 100 µM | 8.95 | > 100 µM | 12.6 | 36 µM | 6.1 | – | – | – | – | – |
| COC(=O)CN1CCN(c2cccc3c2CCCC3)CC1 | > 100 | > 100 | > 100 | > 100 | > 100 µM | > 100 µM | > 100 | > 100 µM | 94.6 | > 100 µM | > 100 | – | – | – | – | – |
| Nc1nc(Sc2ccc([N+](=O)[O-])c3nonc23)c2[nH]cnc2n1 | 8.32 | 1.77 | 3.18 | 4.43 | 12.2 µM | 19 µM | 6.32 | 25.4 µM | 11.3 | 11.2 µM | 13.7 | – | – | – | – | – |
| Clc1ccc(-c2cn3c(nc4ccccc43)c(-c3ccccc3)n2)cc1 | > 49.2 | > 100 | 15.2 | > 75.5 | > 36.6 µM | > 100 µM | 38.8 | > 100 µM | > 100 | 26.7 µM | > 100 | – | – | – | – | – |
| COC(=O)[C@@H]1c2c(oc3cc(CO)cc(O)c3c2=O)C=C[C@H]1O | 10.1 | > 100 | 12 | 9.4 | 31.7 µM | 27.4 µM | 28.9 | 47.5 µM | 51.5 | 25 µM | 27.5 | – | – | – | – | – |
| CC(=O)OCC1OC(OCCCOP(=O)(OCCC#N)OCC2OC(n3cnc4c(N)ncnc43)C(OC(=O)c3ccccc3)C2OC(=O)c2ccccc2)C(OC(C)=O)C(OC(C)=O)C1OC(C)=O (centres undefined) | > 100 | > 100 | > 100 | > 100 | > 100 µM | > 100 µM | > 100 | > 100 µM | > 100 | > 100 µM | > 100 | – | – | – | – | – |
| O=C(/C=C/c1ccc(-c2ccccc2)cc1)NCc1ccc(C(=O)NCCc2ccccc2)cc1 | 94.9 | > 100 | > 100 | > 100 | > 100 µM | > 100 µM | > 100 | > 100 µM | > 100 | > 100 µM | > 100 | – | – | – | – | – |
